Reference: patent US6452050B1, “Synthesis and use of α-ketoamide derivatives and arrays” (ArQule, Inc., priority 1997, dated 2002)

Target: T1, Cathepsin B (EC 3.4.22.1, from human liver) (Homo sapiens, UniProt P07858)
T1 construct: Cathepsin B (EC 3.4.22.1, from human liver) was purchased from Sigma Chemical Company; purchased Sigma Chemical Company (St. Louis, Mo.); host or cells: human liver
Test: High-throughput fluorometric cathepsin B assay (Z-F-R-AMC substrate)
Type: biochemical
Details: cruzain versus cathepsin B IC50
Protocol: A fluorometric high throughput cathepsin B assay for detecting inhibitory activity was developed in 96-well microtiter plate format. Benzyloxy-Phe-Arg-AMC (Z-F-R-AMC; Molecular Probes, Inc., Eugene, Oreg.) was the substrate used in the assay (Km=150 μM). Cathepsin B (EC 3.4.22.1, from human liver) was purchased from Sigma Chemical Company (St. Louis, Mo.) in a stock solution containing 25 μg of the protein in 25 μl buffer (i.e., 20 mM sodium acetate, pH 5.0, and 1 mM EDTA).
The bioassay of the compounds was performed on a Sagian/Beckman Integrated robotic system (Beckman, Fullerton, Calif.). Inhibition of enzyme activity was measured via fluorescent detection. Fluorescence readings were taken at an excitation wavelength of […] (λmax=350 nm) and an emission wavelength of 430 nm (λmax=430 nm) on a BMG FluoStar (BMG, Durham, N.C.). […]
The reaction was initiated by the addition of the cathepsin B (0.46 ng/ml) in the assay buffer containing dithiothreitol (giving a final concentration of 1.5 mM). […] The activity was obtained by observing the end point absorbance reading after quenching. The percentage of inhibition was calculated by dividing the absorbance measured in the presence of inhibitor plus enzyme (inhibited signal) by the absorbance measured in the presence of enzyme alone (full signal) minus the absorbance obtained in the absence of both inhibitors and the enzyme (background). […]

O=C(Nc1ccc(CNC(=O)C(=O)c2ccc(-c3ccccc3)cc2)cc1)Nc1ccc(-c2ccccc2)cc1 [Compound 4]
selectivity over cathepsin B: greater than 20 fold
